Measured values as given in US20040192697A1, “Pyrrolopyridine potassium channel openers” (priority 2002, published 2004).

Experiments:
[1] = tested on: Landrace pig bladder strips; test: In vitro functional model: field-stimulated bladder tissue strips; conditions: dose dependent over concentration range of 10^−9 to 10^−5 M; control agonist
Method: In vitro Functional Model
Compounds were evaluated for functional BK channel opening activity using tissue strips obtained from Landrace pig bladders. Landrace pig bladders were obtained from female Landrace pigs of 9-30 kg. Landrace pigs were euthanized with an intraperitoneal injection of pentobarbital solution, Somlethal®, J. A. Webster Inc., Sterling Mass. The entire bladder was removed and immediately placed into Krebs Ringer bicarbonate solution (composition, mM: NaCl, 120; NaHCO3, 20; dextrose, 11; KCl, 4.7; CaCl2, 2.5; MgSO4, 1.5; KH2PO4, 1.2; K2EDTA, 0.01, equilibrated with 5% CO2/95% O2 pH 7.4 at 37° C.). Propranolol (0.004 mM) was included in all of the assays to block β-adrenoceptors. The trigonal and dome portions were discarded. Strips 3-5 mm wide and 20 mm long were prepared from the remaining tissue cut in a circular fashion. The mucosal layer was removed. One end was fixed to a stationary glass rod and the other to a Grass FT03 transducer at a basal preload of 1.0 gram. Two parallel platinum electrodes were included in the stationary glass rod to provide field stimulation of 0.05 Hz, 0.5 milli-seconds at 20 volts. […] The maximal efficacy of each compound (expressed as % relative to P1075) is reported. […] Agonist potencies were also expressed as an index relative to P1075. The index was calculated by dividing the ED50 for P1075 by the ED50 for the test agonist in a given tissue. […]

melting point | SMILES | effect on stimulated twitch of bladder strips [1]
– | CCC(C)(C)N=C(NC#N)Nc1cccnc1 [Example P1075] | completely eliminated the stimulated twitch
241 to 242 °C | N#Cc1c(N2CCCCC2)[nH]c2cccnc12 [Example 18, 2-Piperidin-1-yl-1H-pyrrolo[3,2-b]pyridine-3-carbonitrile] | –
207 to 209 °C | N#Cc1c(N2CCC[C@H]2CO)[nH]c2cccnc12 [Example 10, (S)-2-(2-Hydroxymethyl-pyrrolidin-1-yl)-1H-pyrrolo[3,2-b]pyridine-3-carbonitrile] | –
